Test results taken from ChEMBL document CHEMBL1146447, “Evaluation of the antifungal activity of natural xanthones from Garcinia mangostana and their synthetic derivatives” (1997).

Experiments:
Type in all cases: functional
Alternaria alternata [1] = assay: Antifungal activity against Alternaria tenuis at 1 ppm after 168 hrs at 24 hrs intervals
Alternaria alternata [2] = assay: Antifungal activity against Alternaria tenuis at 10 ppm after 168 hrs at 24 hrs intervals
Alternaria alternata [3] = assay: Antifungal activity against Alternaria tenuis at 100 ppm after 168 hrs at 24 hrs intervals
Alternaria alternata [4] = assay: Antifungal activity against Alternaria tenuis at 1000 ppm after 168 hrs at 24 hrs intervals
Drechslera [5] = assay: Antifungal activity against Drechslera oryzae at 1 ppm after 168 hrs at 24 hrs intervals
Drechslera [6] = assay: Antifungal activity against Drechslera oryzae at 10 ppm after 168 hrs at 24 hrs intervals
Drechslera [7] = assay: Antifungal activity against Drechslera oryzae at 100 ppm after 168 hrs at 24 hrs intervals
Drechslera [8] = assay: Antifungal activity against Drechslera oryzae at 1000 ppm after 168 hrs at 24 hrs intervals
[9] = system: Fusarium oxysporum f. sp. vasinfectum; assay: Antifungal activity against Fusarium oxysporum vasinfectum at 1 ppm after 144 hrs at 24 hrs intervals
[10] = system: Fusarium oxysporum f. sp. vasinfectum; assay: Antifungal activity against Fusarium oxysporum vasinfectum at 10 ppm after 144 hrs at 24 hrs intervals
[11] = system: Fusarium oxysporum f. sp. vasinfectum; assay: Antifungal activity against Fusarium oxysporum vasinfectum at 100 ppm after 144 hrs at 24 hrs intervals
[12] = system: Fusarium oxysporum f. sp. vasinfectum; assay: Antifungal activity against Fusarium oxysporum vasinfectum at 1000 ppm after 144 hrs at 24 hrs intervals

| Structure (SMILES) | inhibition at 1 ppm (Alternaria alternata [1]) [%] | inhibition at 10 ppm (Alternaria alternata [2]) [%] | inhibition at 100 ppm (Alternaria alternata [3]) [%] | inhibition at 1000 ppm (Alternaria alternata [4]) [%] | inhibition at 1 ppm (Drechslera [5]) [%] | inhibition at 10 ppm (Drechslera [6]) [%] | inhibition at 100 ppm (Drechslera [7]) [%] | inhibition at 1000 ppm (Drechslera [8]) [%] | inhibition at 1 ppm [9] [%] | inhibition at 10 ppm [10] [%] | inhibition at 100 ppm [11] [%] | inhibition at 1000 ppm [12] [%] |
| --- | --- | --- | --- | --- | --- | --- | --- | --- | --- | --- | --- | --- |
| CC(C)=CCc1c(O)cc2oc3cc(O)c(O)c(CC=C(C)C)c3c(=O)c2c1O | 1 | 9 | 33 | 58 | 5 | 35 | 81 | 85 | 0 | 6 | 50 | 64 |
| COc1c(OC(C)C)cc2oc3cc(OC(C)C)c(CC=C(C)C)c(O)c3c(=O)c2c1CC=C(C)C | -10 | 2 | -1 | 1 | -1 | 4 | 1 | 9 | 3 | 1 | 4 | 3 |
| C=CCOc1cc2oc3cc(OCC=C)c(OC)c(CC=C(C)C)c3c(=O)c2c(O)c1CC=C(C)C | -22 | -13 | 8 | 42 | -19 | -18 | -4 | -34 | 0 | 1 | 4 | 1 |
| COc1c(O)cc2oc3cc4c(c(O)c3c(=O)c2c1CC=C(C)C)CCC(C)(C)O4 | 11 | 15 | 28 | 31 | 29 | 45 | 58 | 61 | 4 | 8 | 19 | 18 |
| COc1cc2oc3cc(OC)c(OC)c(CC=C(C)C)c3c(=O)c2c(O)c1CC=C(C)C | 14 | 22 | 16 | 16 | 7 | 9 | 27 | 41 | 5 | 12 | 16 | 17 |
| CCCOc1cc2oc3cc(OCCC)c(OC)c(CC=C(C)C)c3c(=O)c2c(O)c1CC=C(C)C | -6 | -3 | -2 | 1 | 8 | -25 | -36 | -10 | -4 | 5 | -6 | -2 |
| COc1c(OC(C)=O)cc2oc3cc(OC(C)=O)c(CC=C(C)C)c(O)c3c(=O)c2c1CC=C(C)C | 8 | 6 | 6 | -6 | 11 | 51 | 11 | 14 | 6 | 5 | 4 | 3 |
| CCCCOc1cc2oc3cc(OCCCC)c(OC)c(CC=C(C)C)c3c(=O)c2c(O)c1CC=C(C)C | 1 | 4 | -2 | -5 | -38 | -38 | -66 | -69 | -7 | -4 | -4 | -3 |
| S=c1c2ccccc2oc2ccccc12 | -6 | -12 | -22 | -32 | 11 | 5 | -11 | 10 | 2 | 4 | 4 | 6 |
| C=C(C)COc1cc2oc3cc(OCC(=C)C)c(OC)c(CC=C(C)C)c3c(=O)c2c(O)c1CC=C(C)C | -8 | -2 | 4 | -1 | -1 | -1 | -1 | 17 | 1 | 2 | 3 | 9 |
| CCOc1cc2oc3cc(OCC)c(OC)c(CC=C(C)C)c3c(=O)c2c(O)c1CC=C(C)C | -4 | 4 | -11 | -1 | -72 | -34 | -31 | -57 | -3 | -2 | -3 | -1 |
| CC1(C)CCc2c(cc3oc4cc(O)c5c(c4c(=O)c3c2O)CCC(C)(C)O5)O1 [BR-XANTHONE A] | 14 | 18 | 15 | 14 | 27 | 28 | 31 | 36 | 3 | 0 | 0 | 3 |
| COc1c(O)cc2oc3cc(O)c(CC=C(C)C)c(O)c3c(=O)c2c1CCC(C)(C)O [GARCINONE D] | -7 | 2 | -11 | 26 | 27 | 30 | 43 | 64 | -1 | 10 | 12 | 41 |
| CC(C)=CCc1c(O)c(CC=C(C)C)c2oc3c(O)ccc(O)c3c(=O)c2c1O [GARTANIN] | 4 | 20 | 22 | 29 | 18 | 54 | 75 | 71 | 3 | 4 | 9 | 12 |
| COc1c(O)cc2oc3cc(O)c(CC=C(C)C)c(O)c3c(=O)c2c1CC=C(C)C [MANGOSTIN] | 17 | 38 | 39 | 41 | 55 | 51 | 54 | 53 | 11 | 22 | 29 | 24 |
| O=c1c2ccccc2oc2ccccc12 [XANTHONE] | -43 | 5 | -6 | -14 | 19 | 29 | 34 | 3 | -2 | 8 | 1 | 6 |
